The values that follow come from patent US8367677B2, “Non-glycosylated/non-glycosidic/non-peptidic small molecule PSGL-1 mimetics for the treatment of inflammatory disorders” (Revotar Biopharmaceuticals AG, priority 2004, dated 2013).

Common to all, as to assay type: binding
Test [1] addresses T1, human E-Selectin-IgG-chimera (Homo sapiens, UniProt P16581).
T1 construct: fused on or other part: human IgG Fc part, a tag and dimerising handle that is captured by the goat anti-human Fc antibody on the plate
T1 sequence (P16581 22-175 limits assumed): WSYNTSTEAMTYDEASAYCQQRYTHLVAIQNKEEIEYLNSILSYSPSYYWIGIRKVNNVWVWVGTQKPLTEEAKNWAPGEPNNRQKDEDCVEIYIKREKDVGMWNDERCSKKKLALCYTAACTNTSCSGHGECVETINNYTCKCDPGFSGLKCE
In words: Sialyl Lewis x Tyrosine Sulfate Assay (sLex TSA), E-selectin. As to conditions: for inhibition at 100 µM / E-Selectin [% Inhib.]: compound at 100 μM; for inhibition at 100 µM: read-out: E-Selectin [% Inhib.]. As for the experimental part: (§1) Compounds of the present invention are assayed on a molecular level for their ability to inhibit the binding of P-, L-, or E-selectin chimeric molecules to sLe^x and tyrosinesulfate residues linked to a polymeric matrix as a PSGL-1 substitute.
(§2) Microtiter plates are coated overnight in carbonate buffer pH9.6 with goat anti human Fc mAB (10 μg/ml). After washing in assay buffer (25 mM 4-(2-hydroxyethyl)-1-piperazineethanesulfonic acid (HEPES), 150 mM NaCl, 1 mM CaCl2 pH7.4) and blocking (3% bovine serum albumin (BSA) in assay buffer) plates are incubated for 2 h at 37° C. with human P-Selectin-IgG-chimera (0.61 nM respectively 150 ng/mL) or human L-Selectin-IgG-chimera (0.61 nM respectively 89 ng/mL) or human E-Selectin-IgG-chimera (0.61 nM respectively 131 ng/mL). 5 μl of sLe^x-tyrosine sulfate polyacrylamide (1 mg/ml) carrying 15% sLe^x, 10% Tyrosine-sulfate and 5% biotin is complexed with 20 μl Streptavidin-Peroxidase solution (1 mg/ml) and 25 μl assay buffer without CaCl2. For use in the assay, the ligand complex is diluted 1:10000 in assay buffer and further diluted 1:1 with varying amounts of compounds in assay buffer incl. 2% DMSO. This mixture is added to the wells precoated with E- or P-selectin. After incubation for 2 h at 37° C., wells are washed for six times with in assay buffer incl. 0.005% Polyoxyethylenesorbitan monolaurate (TWEEN 20), developed for 10-15 min with 20 μl 3,3′,5,5′-tetramethylbenzidine (TMB)/H2O2 substrate solution and stopped with 20 μl […]. Bound sLe^x-Tyrosine sulfate ligand complex is determined by measuring optical density at 450 nm vs. 620 nm in a Fusion alpha-FP reader (sold from Packard Bioscience, Dreieich, Germany).

Test [2] deals with T2, human P-Selectin-IgG-chimera (Homo sapiens, UniProt P16109).
T2 sequence (P16109 42-771 limits assumed): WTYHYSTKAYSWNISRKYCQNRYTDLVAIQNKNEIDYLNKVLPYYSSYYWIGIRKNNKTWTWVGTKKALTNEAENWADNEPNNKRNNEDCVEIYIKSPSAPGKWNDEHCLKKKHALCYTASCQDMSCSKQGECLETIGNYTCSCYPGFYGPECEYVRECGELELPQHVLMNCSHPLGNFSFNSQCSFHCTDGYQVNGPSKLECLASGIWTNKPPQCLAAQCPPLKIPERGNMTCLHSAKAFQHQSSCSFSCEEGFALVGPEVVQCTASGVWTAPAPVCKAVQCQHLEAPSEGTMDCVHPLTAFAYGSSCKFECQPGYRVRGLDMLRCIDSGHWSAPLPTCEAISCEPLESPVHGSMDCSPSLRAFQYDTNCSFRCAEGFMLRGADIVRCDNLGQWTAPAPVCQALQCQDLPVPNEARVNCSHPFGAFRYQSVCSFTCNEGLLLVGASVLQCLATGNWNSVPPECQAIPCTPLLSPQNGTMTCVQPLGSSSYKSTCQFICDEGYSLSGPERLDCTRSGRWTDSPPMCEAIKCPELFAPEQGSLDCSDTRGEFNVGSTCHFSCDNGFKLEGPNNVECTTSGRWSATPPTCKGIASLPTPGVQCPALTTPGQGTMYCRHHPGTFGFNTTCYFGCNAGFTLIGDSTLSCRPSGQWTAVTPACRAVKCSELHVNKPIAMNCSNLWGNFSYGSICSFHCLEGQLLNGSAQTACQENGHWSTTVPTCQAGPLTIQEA
In words: Sialyl Lewis x Tyrosine Sulfate Assay (sLex TSA), P-selectin. As to conditions: for inhibition at 100 µM / P-Selectin [% Inhib.]: compound at 100 μM; for inhibition at 100 µM: read-out: P-Selectin [% Inhib.]. As for the experimental part: as §1, §2

For test [3], the target named is T3, human L-Selectin-IgG-chimera (Homo sapiens, UniProt P14151).
T3 construct: fused on or other part: human IgG Fc part, a tag and dimerising handle that is captured by the goat anti-human Fc antibody on the plate
T3 sequence (P14151 39-318 limits assumed): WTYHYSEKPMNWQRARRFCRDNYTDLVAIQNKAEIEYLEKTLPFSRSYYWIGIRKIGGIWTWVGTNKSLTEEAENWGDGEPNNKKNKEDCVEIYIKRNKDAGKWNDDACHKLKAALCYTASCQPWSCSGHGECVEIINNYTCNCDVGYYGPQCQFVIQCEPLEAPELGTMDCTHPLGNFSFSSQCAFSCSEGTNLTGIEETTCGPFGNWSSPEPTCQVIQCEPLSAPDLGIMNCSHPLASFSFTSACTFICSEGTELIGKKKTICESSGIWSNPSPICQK
Description: Sialyl Lewis x Tyrosine Sulfate Assay (sLex TSA), L-selectin. To be noted: for inhibition at 100 µM / L-Selectin [% Inhib.]: compound at 100 μM; for inhibition at 100 µM: read-out: L-Selectin [% Inhib.]. As for the experimental part: as §1, §2

SMILES strings stand for the structures.

As to `COC(=O)Cc1cccc(-c2ccccc2NC(=O)CCc2cc(O)c(O)c(O)c2)c1` [Compound 73, {2′-[3-(3,4,5-Trihydroxy-phenyl)-propionylamino]-biphenyl-3-yl}-acetic acid methyl ester], the results for the inhibition at 100 µM in test [1], in test [2] and in test [3] were 54%, 84% and 88%, respectively.

As to `O=C(O)Cc1cccc(-c2ccccc2NC(=O)Cc2cc(O)c(O)c(O)c2)c1` [Compound 94], the IC50 in test [1] came out at 4.9 µM; in test [2], 4.2 µM; in test [3], 8.7 µM. In addition, the figures for the inhibition at 100 µM in test [1], in test [2] and in test [3] were 79%, 78% and 76%, respectively.

Take `O=C(O)Cc1cccc(-c2ccccc2NC(=O)CCc2cc(O)c(O)c(O)c2)c1` [Compound 95]: the “E-Selectin [% Inhib.]” value in test [1] was found to be 89%. Further, in test [2], the “P-Selectin [% Inhib.]” value is reported as 90%. In addition, in test [3], the “L-Selectin [% Inhib.]” value came to 81%.

With `O=C(Cc1cc(O)c(O)c(O)c1)Nc1cccc(C(=O)O)c1` [Compound 96], the IC50 in test [1] was determined as 0.8 µM; in test [2] it was 1.1 µM; in test [3], 1.4 µM. For the same compound, the inhibition at 100 µM in test [1] amounted to 63%; in test [2] it was 86%; in test [3], 73%.

Take `O=C(O)Cc1cccc(NC(=O)Cc2cc(O)c(O)c(O)c2)c1` [Compound 98]: the IC50 in test [1] was 1 µM; in test [2], 2.1 µM. In addition, the figures for the inhibition at 100 µM in test [1], in test [2] and in test [3] were 58%, 57% and 52%, respectively.

For `O=C(Cc1ccc(O)c(O)c1O)NCC1CCC(C(=O)O)CC1` (stereo not shown) [Compound 100], the “E-Selectin [% Inhib.]” value in test [1] is reported as 21%. Also, the “P-Selectin [% Inhib.]” value in test [2] is 40%. Also, the “L-Selectin [% Inhib.]” value in test [3] is 27%.

On to `O=C(O)Cc1ccc(-c2ccccc2NC(=O)Cc2cc(O)c(O)c(O)c2)s1` [Compound 103], for which, in test [1], the “E-Selectin [% Inhib.]” value came to 68%. Moreover, in test [2], the “P-Selectin [% Inhib.]” value turned out to be 87%. Besides, the “L-Selectin [% Inhib.]” value in test [3] worked out at 81%.

As for `O=C(Cc1cc(O)c(O)c(O)c1)NCC1CCC(C(=O)O)CC1` (stereo not shown) [Compound 104], the IC50 in test [1] worked out at 3 µM; in test [2], 2.8 µM; in test [3], 3.3 µM. Further, the inhibition at 100 µM in test [1] was determined as 67%; in test [2], 67%; in test [3], 62%.

For `O=C(CCc1cc(O)c(O)c(O)c1)NCC1CCC(C(=O)O)CC1` (stereo not shown) [Compound 105], the IC50 was found to be 3.1 µM in test [1], 3.4 µM in test [2] and 5.7 µM in test [3]. In addition, the inhibition at 100 µM in test [1] amounted to 90%; in test [2], 86%; in test [3], 84%.

`O=C(O)Cc1ccc(-c2ccccc2NC(=O)CCc2ccc(O)c(O)c2O)s1` [Compound 106]: the “E-Selectin [% Inhib.]” value in test [1] is 52%. The “P-Selectin [% Inhib.]” value in test [2] was found to be 94%. For the same compound, the “L-Selectin [% Inhib.]” value in test [3] is recorded as 85%.

`Cc1ccc(C(=O)O)cc1NC(=O)Cc1cc(O)c(O)c(O)c1` [Compound 107]: the “E-Selectin [% Inhib.]” value in test [1] is 53%. In addition, the “P-Selectin [% Inhib.]” value in test [2] worked out at 87%. Further, the “L-Selectin [% Inhib.]” value in test [3] was 75%.

As for `Cc1ccc(C(=O)O)cc1NC(=O)CCc1cc(O)c(O)c(O)c1` [Compound 108], the values for the IC50 in test [1], in test [2] and in test [3] were 1.3 µM, 1.7 µM and 1.8 µM, respectively. Further, the inhibition at 100 µM in test [1] is 85%; in test [2], 86%; in test [3], 84%.

`O=C(O)Cc1cccc(NC(=O)CCc2cc(O)c(O)c(O)c2)c1` [Compound 109]: inhibition in test [1] was half-maximal at 2.3 µM (IC50). For the same compound, the inhibition at 100 µM is 82% in test [1], 73% in test [2] and 72% in test [3].

For the compound `O=C(CCc1cc(O)c(O)c(O)c1)Nc1cccc(C(=O)O)c1` [Compound 110], the “E-Selectin [% Inhib.]” value in test [1] is on record as 96%. For the same compound, in test [2], the “P-Selectin [% Inhib.]” value came to 96%. Moreover, the “L-Selectin [% Inhib.]” value in test [3] was determined as 92%.

Regarding `O=C(Cc1ccc(O)c(O)c1O)Nc1cccc(C(=O)O)c1` [Compound 111], the 50% inhibitory concentration (IC50) came out at 0.6 µM in test [1], 2.1 µM in test [2] and 7 µM in test [3]. Besides, the inhibition at 100 µM in test [1] came to 46%; in test [2], 99%; in test [3], 97%.

`O=C(O)Cc1cccc(NC(=O)Cc2ccc(O)c(O)c2O)c1` [Compound 112]: the inhibition at 100 µM is 38% in test [1], 97% in test [2] and 83% in test [3]. Besides, the IC50 turned out to be 7.4 µM in test [2] and 16 µM in test [3].

`Cc1c(NC(=O)Cc2ccc(O)c(O)c2O)cccc1C(=O)O` [Compound 113]: the “E-Selectin [% Inhib.]” value in test [1] was found to be 42%. The “P-Selectin [% Inhib.]” value in test [2] is given as 73%. Besides, in test [3], the “L-Selectin [% Inhib.]” value was 48%.

As to `O=C(CCc1ccc(O)c(O)c1O)Nc1cccc(C(=O)O)c1` [Compound 114], the “E-Selectin [% Inhib.]” value in test [1] is on record as 38%. Moreover, the “P-Selectin [% Inhib.]” value in test [2] worked out at 99%. In addition, the “L-Selectin [% Inhib.]” value in test [3] is on record as 95%.

As to `Cc1c(NC(=O)CCc2ccc(O)c(O)c2O)cccc1C(=O)O` [Compound 115], in test [2], the “P-Selectin [% Inhib.]” value worked out at 89%. For the same compound, the “L-Selectin [% Inhib.]” value in test [3] was determined as 88%.

On to `Cc1ccc(C(=O)O)cc1NC(=O)CCc1ccc(O)c(O)c1O` [Compound 116], for which the IC50 amounted to 7.3 µM in test [1], 13 µM in test [2] and 15 µM in test [3]. Further, the inhibition at 100 µM was 92% in test [1], 88% in test [2] and 87% in test [3].

On to `Cc1c(NC(=O)CCc2cc(O)c(O)c(O)c2)cccc1C(=O)O` [Compound 117], for which the IC50 stood at 8.4 µM in test [1], 21.7 µM in test [2] and 109 µM in test [3]. Moreover, the inhibition at 100 µM turned out to be 94% in test [1], 86% in test [2] and 89% in test [3].

Consider `O=C(Cc1ccc(O)c(O)c1O)NCc1ccc(C(=O)O)cc1` [Compound 119], for which, in test [1], the “E-Selectin [% Inhib.]” value was 14%. Further, the “P-Selectin [% Inhib.]” value in test [2] turned out to be 82%. For the same compound, the “L-Selectin [% Inhib.]” value in test [3] is 55%.
